Measurements taken from PubChem BioAssay AID2060484 (Molecular Pharmacology Branch, DTP, NCI, 2025).

System: SUM149PT spheroids with HUVEC/MSC, viability
Test: Anticancer human tumor SUM149PT cell line growth inhibition [GQUAD];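 note: spheroids exposed to drugs for seven days before readout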;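 for viability, T/C: percent viability relative to DMSO vehicle control taken as 100%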
Details: for IC50: curve of first compound; for viability, T/C: stronger effect = lower value; active = viability on the fitted dose curve at most 10% of control; inactive = the rest
How it was run: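 Tumor cells were grown as complex spheroids with HUVEC endothelial cells and mesenchymal stem cells as stroma. G-quadruplex stabilizers were combined with targeted agents over half-log dilutions from near the clinical Cmax, or from 10 microM.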

[1] = second compound 0.0316 µM, first compound 0.0316 µM
[2] = second compound 0.0316 µM, first compound 0.1 µM
[3] = second compound 0.0316 µM, first compound 0.316 µM
[4] = second compound 0.0316 µM, first compound 1 µM
[5] = second compound 0.0316 µM, first compound 3.16 µM
[6] = second compound 0.0316 µM, first compound 10 µM
[7] = second compound 0.1 µM, first compound 0.0316 µM
[8] = second compound 0.1 µM, first compound 0.1 µM
[9] = second compound 0.1 µM, first compound 0.316 µM
[10] = second compound 0.1 µM, first compound 1 µM
[11] = second compound 0.1 µM, first compound 3.16 µM
[12] = second compound 0.1 µM, first compound 10 µM
[13] = second compound 0.316 µM, first compound 0.0316 µM
[14] = second compound 0.316 µM, first compound 0.1 µM
[15] = second compound 0.316 µM, first compound 0.316 µM
[16] = second compound 0.316 µM, first compound 1 µM
[17] = second compound 0.316 µM, first compound 3.16 µM
[18] = second compound 0.316 µM, first compound 10 µM
[19] = second compound 1 µM, first compound 0.0316 µM
[20] = second compound 1 µM, first compound 0.1 µM
[21] = second compound 1 µM, first compound 0.316 µM
[22] = second compound 1 µM, first compound 1 µM
[23] = second compound 1 µM, first compound 3.16 µM
[24] = second compound 1 µM, first compound 10 µM
[25] = second compound 3.16 µM, first compound 0.0316 µM
[26] = second compound 3.16 µM, first compound 0.1 µM
[27] = second compound 3.16 µM, first compound 0.316 µM
[28] = second compound 3.16 µM, first compound 1 µM
[29] = second compound 3.16 µM, first compound 3.16 µM
[30] = second compound 3.16 µM, first compound 10 µM
[31] = second compound 10 µM, first compound 0.0316 µM
[32] = second compound 10 µM, first compound 0.1 µM
[33] = second compound 10 µM, first compound 0.316 µM
[34] = second compound 10 µM, first compound 1 µM
[35] = second compound 10 µM, first compound 3.16 µM
[36] = second compound 10 µM, first compound 10 µM

CC(C)n1c(=O)n(C)c2cnc3cc(F)c(-c4ccc(OCCCN5CCCCC5)nc4)cc3c21 + Cc1cnc(CNC(=O)c2c(=O)c3ccc(N4CCCN(C)CC4)nc3n3c2sc2ccccc23)cn1
inactive: viability, T/C [1] 56.4% | viability, T/C [2] 51.5% | viability, T/C [3] 55.8% | viability, T/C [4] 59% | viability, T/C [5] 59.9% | viability, T/C [6] 48.9% | viability, T/C [7] 55% | viability, T/C [8] 55.5% | viability, T/C [9] 52.6% | viability, T/C [10] 60.2% | viability, T/C [11] 64.7% | viability, T/C [12] 46.2% | viability, T/C [13] 52% | viability, T/C [14] 57% | viability, T/C [15] 52.2% | viability, T/C [16] 50.9% | viability, T/C [17] 54.1% | viability, T/C [18] 35.5% | viability, T/C [19] 39.6% | viability, T/C [20] 44.3% | viability, T/C [21] 48.4% | viability, T/C [22] 46.4% | viability, T/C [23] 48.8% | viability, T/C [24] 32.9% | viability, T/C [25] 37.7% | viability, T/C [26] 41.1% | viability, T/C [27] 42% | viability, T/C [28] 43.5% | viability, T/C [29] 39.9% | viability, T/C [30] 31.5% | viability, T/C [31] 0.24% | viability, T/C [32] 8.78% | viability, T/C [33] 32.2% | viability, T/C [34] 23% | viability, T/C [35] 1.78% | viability, T/C [36] 1.16%
< 0.0316 µM: IC50 (second compound 1 µM) | IC50 (second compound 3.16 µM) | IC50 (second compound 10 µM)
3.88 µM: IC50 (second compound 0.316 µM)
> 10 µM: IC50 (second compound 0.0316 µM) | IC50 (second compound 0.1 µM)

CC1COCCN1c1cc(C2(O)CC3CCC(C2)O3)c2cnn(-c3ccn[nH]3)c2n1 (stereo not drawn) + Cc1[nH]c2ccc(F)cc2c1-c1nc2c3cccnc3c3ncccc3c2[nH]1
0.0778 µM: IC50 (second compound 0.1 µM)
0.0841 µM: IC50 (second compound 0.316 µM)
0.0711 µM: IC50 (second compound 3.16 µM)
0.076 µM: IC50 (second compound 1 µM)
0.0738 µM: IC50 (second compound 0.0316 µM)
0.0619 µM: IC50 (second compound 10 µM)
inactive: viability, T/C [1] 74.5% | viability, T/C [2] 40.2% | viability, T/C [3] 27.5% | viability, T/C [4] 23.9% | viability, T/C [5] 22% | viability, T/C [6] 15.9% | viability, T/C [7] 78.9% | viability, T/C [8] 40.5% | viability, T/C [9] 28.3% | viability, T/C [10] 22.6% | viability, T/C [11] 23.9% | viability, T/C [12] 15.4% | viability, T/C [13] 80.9% | viability, T/C [14] 45.6% | viability, T/C [15] 24.6% | viability, T/C [16] 25.5% | viability, T/C [17] 25.4% | viability, T/C [18] 14.7% | viability, T/C [19] 81.8% | viability, T/C [20] 40.2% | viability, T/C [21] 24.8% | viability, T/C [22] 23.5% | viability, T/C [23] 23.6% | viability, T/C [24] 17.6% | viability, T/C [25] 78.4% | viability, T/C [26] 38.2% | viability, T/C [27] 22.3% | viability, T/C [28] 25.8% | viability, T/C [29] 23.5% | viability, T/C [30] 15.3% | viability, T/C [31] 74.9% | viability, T/C [32] 32.2% | viability, T/C [33] 22.9% | viability, T/C [34] 23.1% | viability, T/C [35] 24.7% | viability, T/C [36] 16.2%

Cc1cccc(N(C)C(=O)C2C(O)CCN2c2nc(C)cc(C(F)(F)F)c2C#N)c1 (stereo not drawn) + Cc1[nH]c2ccc(F)cc2c1-c1nc2c3cccnc3c3ncccc3c2[nH]1
> 10 µM: IC50 (second compound 0.0316 µM) | IC50 (second compound 0.1 µM) | IC50 (second compound 0.316 µM) | IC50 (second compound 1 µM) | IC50 (second compound 3.16 µM) | IC50 (second compound 10 µM)
inactive: viability, T/C [1] 98.2% | viability, T/C [2] 92.6% | viability, T/C [3] 105% | viability, T/C [4] 95.4% | viability, T/C [5] 96.5% | viability, T/C [6] 92.6% | viability, T/C [7] 102% | viability, T/C [8] 101% | viability, T/C [9] 104% | viability, T/C [10] 96.7% | viability, T/C [11] 98% | viability, T/C [12] 99% | viability, T/C [13] 97.8% | viability, T/C [14] 94.7% | viability, T/C [15] 96% | viability, T/C [16] 97.3% | viability, T/C [17] 96.1% | viability, T/C [18] 95.5% | viability, T/C [19] 97.3% | viability, T/C [20] 102% | viability, T/C [21] 91.1% | viability, T/C [22] 98% | viability, T/C [23] 91.2% | viability, T/C [24] 108% | viability, T/C [25] 96.5% | viability, T/C [26] 102% | viability, T/C [27] 105% | viability, T/C [28] 105% | viability, T/C [29] 106% | viability, T/C [30] 102% | viability, T/C [31] 92.5% | viability, T/C [32] 93% | viability, T/C [33] 105% | viability, T/C [34] 84.8% | viability, T/C [35] 103% | viability, T/C [36] 96.7%

CCc1c2c(nc3ccc(O)cc13)-c1cc3c(c(=O)n1C2)COC(=O)[C@]3(O)CC + Cc1cnc(CNC(=O)c2c(=O)c3ccc(N4CCCN(C)CC4)nc3n3c2sc2ccccc23)cn1
< 0.000999 µM: IC50 (second compound 0.0316 µM) | IC50 (second compound 0.1 µM) | IC50 (second compound 0.316 µM) | IC50 (second compound 1 µM) | IC50 (second compound 3.16 µM) | IC50 (second compound 10 µM)
active: viability, T/C [21] 8.28% | viability, T/C [27] 3.55% | viability, T/C (second compound 10 µM, first compound 0.000999 µM) 0.16% | viability, T/C (second compound 10 µM, first compound 0.00316 µM) 3.09% | viability, T/C (second compound 10 µM, first compound 0.00999 µM) 0.98% | viability, T/C [31] 1.56% | viability, T/C (second compound 10 µM, first compound 0.0999 µM) 1.51% | viability, T/C [33] 1.72%
inactive: viability, T/C (second compound 0.0316 µM, first compound 0.000999 µM) 45% | viability, T/C (second compound 0.0316 µM, first compound 0.00316 µM) 30.6% | viability, T/C (second compound 0.0316 µM, first compound 0.00999 µM) 42.1% | viability, T/C [1] 30.6% | viability, T/C (second compound 0.0316 µM, first compound 0.0999 µM) 25.9% | viability, T/C [3] 12.1% | viability, T/C (second compound 0.1 µM, first compound 0.000999 µM) 38.9% | viability, T/C (second compound 0.1 µM, first compound 0.00316 µM) 40.9% | viability, T/C (second compound 0.1 µM, first compound 0.00999 µM) 44.6% | viability, T/C [7] 38.9% | viability, T/C (second compound 0.1 µM, first compound 0.0999 µM) 25.1% | viability, T/C [9] 10.2% | viability, T/C (second compound 0.316 µM, first compound 0.000999 µM) 38.7% | viability, T/C (second compound 0.316 µM, first compound 0.00316 µM) 42.8% | viability, T/C (second compound 0.316 µM, first compound 0.00999 µM) 41.1% | viability, T/C [13] 33.8% | viability, T/C (second compound 0.316 µM, first compound 0.0999 µM) 21.8% | viability, T/C [15] 10.8% | viability, T/C (second compound 1 µM, first compound 0.000999 µM) 37% | viability, T/C (second compound 1 µM, first compound 0.00316 µM) 41.2% | viability, T/C (second compound 1 µM, first compound 0.00999 µM) 37.1% | viability, T/C [19] 35.5% | viability, T/C (second compound 1 µM, first compound 0.0999 µM) 19.7% | viability, T/C (second compound 3.16 µM, first compound 0.000999 µM) 33.1% | viability, T/C (second compound 3.16 µM, first compound 0.00316 µM) 38.7% | viability, T/C (second compound 3.16 µM, first compound 0.00999 µM) 37.1% | viability, T/C [25] 31% | viability, T/C (second compound 3.16 µM, first compound 0.0999 µM) 21.9%
